Test results published in paper PMC9920413, “New Bicyclic Pyridine-Based Hybrids Linked to the 1,2,3-Triazole Unit: Synthesis via Click Reaction and Evaluation of Neurotropic Activity and Molecular Docking” (Molecules, 2023).

Assays:
mouse = assay: Elevated plus maze (EPM) test; type: in vivo; details: 5 min
How it was run: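 Mice dosed intraperitoneally with compound or reference before testing, controls receiving emulsifier. Anxiolytic effect scored as increased entries into and time in open arms without raised total motor activity; closed-arm time and center-entry attempts also recorded; significance at p < 0.05.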

rats [1] = assay: Open field test; type: in vivo
How it was run: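 Rats observed for 5 min in a modified open field whose floor is divided into squares with holes, in daytime under natural light. Horizontal movements, rearing and hole sniffing were counted; eight animals per compound, control and reference drug.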

[2] = tested on: pentylenetetrazole (PTZ)-induced convulsions; assay: Antagonism to pentylenetetrazole (PTZ) convulsions; type: in vivo
How it was run: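 Outbred mice (18–22 g), six per dose, given compound or emulsifier vehicle; clonic seizures and convulsions after PTZ recorded over 1 h observation. ED50 derived by the Litchfield–Wilcoxon method.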

[3] = tested on: maximal electroshock-induced seizures; assay: Maximal electroshock-induced seizures (MES); type: in vivo; details: mice, MES 50 mA, 0.2 s
Procedure: The study of the anticonvulsant activity of hybrids 7a–u was assessed by evaluating the antagonism to pentylenetetrazole (PTZ), thiosemicarbazide convulsive seizures, and maximal electroshock-induced seizures (MES). The PTZ-induced test is considered an experimental model for the clonic component of epilepsy seizures and the prognostic anxiolytic activity of the compounds. PTZ is a common convulsive agent used in animal models to investigate the mechanisms of seizures. The model of thiosemicarbazide (TSC) seizures (affecting the exchange of GABA) causes clonic seizures similar to pentylenetetrazole ones. The MES test is used as an animal model for the generalization of tonic seizures in epilepsy. The neurotoxicity and side effects of the compounds (movement coordination disorder, myorelaxation, and ataxia) were also studied on mice with the “rotating rod”[29] test.
The anticonvulsant effect of the newly synthesized compounds was investigated by tests comprising pentylenetetrazole, thiosemicarbazide convulsions, and maximal electroshock (MES). Outbred mice (weight 18–22 g) were used for the study. […] Seizures and clonic convulsions were recorded. […]
The MES test is used as an animal model for the generalized tonic seizures of epilepsy. […] The anticonvulsant properties of compounds were assessed by their prevention of the tonic-extensor phase of convulsions.

rats [4] = assay: Electroshock retrograde amnesia, conditioned response of passive avoidance (CRPA); type: in vivo
How it was run: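 Rats trained in light/dark passive avoidance with a single 0.4 mA foot shock in the dark compartment, then given maximal electroconvulsive shock (50 Hz, 0.2 s, corneal) immediately after to induce amnesia. Retention tested 24 h later; antiamnesic effect read as increased time in the light compartment versus controls.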

mice [5] = assay: Forced swimming test; details: 6 min;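 also: mice made to swim in a water-filled glass vessel under natural light, with durations of active swimming and immobility recorded across the 6 min session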
Procedure: Forced swimming test. To assess “despair and depression”, the “compelling swimming” model was used. Experimental animals were forced to swim in a glass container (height 22 cm, diameter 14 cm), filled 1/3 with water. […] The latent period of immobilization, the total duration of active swimming and immobilization are fixed at 6 min (the experiments were conducted under natural light).

[6] = tested on: thiosemicarbazide (TSC)-induced convulsions; assay: Thiosemicarbazide (TSC) seizures; type: in vivo, mice
How it was run: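 Mice received compounds 100 mg/kg i.p. in carboxymethylcellulose/Tween-80 suspension 45 min before thiosemicarbazide 18 mg/kg s.c. (0.5% solution). Anti-TSC activity judged by latency to onset of clonic seizures.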

in vivo = details: outbred, mouse, in vivo; mice, dead animals after 24 h
How it was run: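 Compounds are given intraperitoneally to mice at 50 to 500 mg/kg, with reference drugs at anticonvulsant doses. Muscle relaxation is scored on a rod rotating at 5 rpm as the number of animals unable to stay on for 2 min. ED50, TD50 and LD50 come from the Litchfield and Wilcoxon method.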

mice [7] = assay: Rotating rod test (neurotoxicity, myorelaxation); type: in vivo; details: i.p., myorelaxation in 50% of animals
How it was run: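 Compounds given i.p. at 50 to 500 mg/kg; mice placed on a rubber-coated rod rotating at 5 rpm, counting animals unable to stay on for 2 min. TD50 derived by the Litchfield–Wilcoxon method.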

[8] = Mus musculus, read-out: Latency of Convulsions, Induced by TSC, I (index of latent period of TSC seizures)

Structure (SMILES): CN1C(=O)CN=C(c2ccccc2)c2cc(Cl)ccc21 [Diazepam, diazepam, reference compound]
- Number of Entries into the Closed Arms (mouse; 2 mg/kg): 5.5 ± 1.1
- Time Spent in Closed Arms (mouse; 2 mg/kg): 257.5 ± 25.2 s
- Time Spent in the Center (mouse; 2 mg/kg): 42.5 ± 3.9 s
- Time Spent in the Open Arms (mouse; 2 mg/kg): 57.0 ± 4.2 s
- Cells Examination, amount (absolute data during 5 min) (rats [1]; 2 mg/kg): 5.0 ±1.2
- Horizontal Displacement, amount (absolute data during 5 min) (rats [1]; 2 mg/kg): 33.6 ± 6.1
- Vertical Displacement, amount (absolute data during 5 min) (rats [1]; 2 mg/kg): 6.4 ± 1.4
- ED50 ([2]; Mus musculus, read-out: ED50 (by PTZ antagonism)): 0.5 mg/kg
- TI ([2]; therapeutic index TI = LD50/ED50): 360
- anticonvulsant effect in the MES test (protection from tonic and clonic seizures) [3]: did not exhibit an anticonvulsant effect
- The Time Spent in the Light Chamber When Playing CRPA + MESH after 24 h, Second Day (rats [4]; 2 mg/kg, study for 5 min): 126.0 ± 6.5 s
- The Time Spent in the Light Chamber during the Training of the CRPA, First Day (rats [4]; 2 mg/kg, study for 5 min): 187.0 ± 6.7 s
- antiamnestic effect, in words (rats [4]; electroshock retrograde amnesia, CRPA): did not have an antiamnestic effect
- Total Time of Active Swimming (mice [5]; 2 mg/kg): 336.0 ± 8.1 s
- Total Time of Immobilization (mice [5]; 2 mg/kg): 24.0 ± 8.2 s
- response vs control in vivo at 2 mg/kg [6, 8]: 90%
- Latency of Convulsions, Induced by TSC, M ± M ([6]; mice, diazepam 2 mg/kg): 9.0 ± 2.5 min
- effect on the model of thiosemicarbazide (TSC) seizures, in words ([6]; mice, diazepam 2 mg/kg): not effective

Structure (SMILES): CCC1(C)CC(=O)NC1=O (centres unmarked) [Ethosuximide, ethosuximide, reference compound]
- Number of Entries into the Closed Arms (mouse; 200 mg/kg): 8.1 ± 2.5
- Time Spent in Closed Arms (mouse; 200 mg/kg): 247.2 ± 27.6 s
- Time Spent in the Center (mouse; 200 mg/kg): 52.8 ± 4.7 s
- Cells Examination, amount (absolute data during 5 min) (rats [1]; 200 mg/kg): 0.6 ± 0.5
- Horizontal Displacement, amount (absolute data during 5 min) (rats [1]; 200 mg/kg): 26.8 ± 5.51
- Vertical Displacement, amount (absolute data during 5 min) (rats [1]; 200 mg/kg): 5.6 ± 1.8
- LD50 at 24 h (in vivo): 1320 mg/kg
- TI ([2]; outbred, mouse, in vivo): 8.5
- anticonvulsant effect in the MES test (protection from tonic and clonic seizures) [3]: did not exhibit an anticonvulsant effect
- Total Time of Active Swimming (mice [5]; 200 mg/kg): 262 ± 25.0 s
- Total Time of Immobilization (mice [5]; 200 mg/kg): 98.0 ± 9.2 s
- response vs control in vivo at 200 mg/kg [6, 8]: 170%
- Latency of Convulsions, Induced by TSC, M ± M ([6]; mice, ethosuximide 200 mg/kg): 17.0 ± 1.4 min
- TD50 (mice [7]): 520 (413 ÷ 655) mg/kg
